Literature values, collected in patent US7083803B2, “Ocular solutions” (Advanced Ocular Systems Limited, priority 2003, dated 2006).

How the values were obtained:
[1] = administered systemically

For `C=CC[C@@H]1/C=C(\C)C[C@H](C)C[C@H](OC)[C@H]2O[C@@](O)(C(=O)C(=O)N3CCCC[C@H]3C(=O)O[C@H](/C(C)=C/[C@@H]3CC[C@@H](O)[C@H](OC)C3)[C@H](C)[C@@H](O)CC1=O)[C@H](C)C[C@@H]2OC` [Tacrolimus, tacrolimus], which “renal and hepatic toxicity” value [1] is on record?
Its value is “significant renal and hepatic toxicity”.

And the solubility in chloroform (chloroform)?
The solubility in chloroform was “very soluble”.

And the solubility in ethanol (ethanol)?
The solubility in ethanol was “freely soluble”.

What about the solubility in methanol (methanol) of the same compound?
The solubility in methanol was “very soluble”.

What about the solubility in water (water) of the same compound?
The solubility in water was “practically insoluble”.

What about the local tolerability (atopic dermatitis; topical administration) of the same compound?
The local tolerability was “well tolerated locally”.

What about the “adverse effects, treated versus control groups” value (atopic dermatitis; topical administration for dermatoses at concentrations up to 0.3%) of the same compound?
Its value is “no significant difference”.

What about the “clinical improvement in atopic dermatitis” value (atopic dermatitis; topical administration, doses 0.03%–0.3%, after 2–3 weeks treatment) of the same compound?
The value was “significant clinical improvement”.
